Measured values published in publication PMC9157788, “Design, Synthesis, and Apoptosis-Promoting Effect Evaluation of Rhopaladins’ Analog 4-Arylidene-5-Oxopyrrolidine Derivatives” (Frontiers in Chemistry, 2022).

Tests used:
HeLa cells = assay: MTT cell viability assay, HeLa; format: cell-based; settings: Homo sapiens, 48 h, read-out: Half inhibitory concentration (IC50), HeLa
Protocol: (§1) HepG2 (human epidermoid hepatocellular carcinoma cell), 7402 (human epidermoid hepatocellular carcinoma cell), C-33A (human epidermoid cervical carcinoma cell), and HeLa (human epidermoid cervical adenocarcinoma cell) were incubated in Dulbecco’s modified Eagle’s medium (DMEM), which was purchased from Gibco (Grand Island, NY, United States). SiHa cells (human epidermoid cervical squamous cell carcinoma) were incubated in minimum essential medium (MEM, also from Gibco). CaSki (human epidermoid cervical carcinoma cell) and LO2 (human normal liver cell) were incubated in minimum essential medium (MEM, also from Gibco). All cells were maintained at 37°C in a humidified incubator with 5% carbon dioxide, and the media contained 10% fetal bovine serum (FBS, Corning, United States) and 1% penicillin–streptomycin antibiotic solution (Corning, United States). SiHa and CaSki were bought from the China Center for Type Culture Collection (CCTCC). The other five types of cancer cell lines were obtained from the Experiment Center of Medicine, Sinopharm Dongfeng Hospital, Hubei University of Medicine. The compounds were dissolved in dimethyl sulfoxide (DMSO, MP Biomedicals, United States), and cisplatin was purchased from Aladdin, Shanghai, China. The control (0 μM) group was treated with DMSO only in the same conditions, and the DMSO content in the medium was less than 0.1%.
Cell viability was measured by a 3-(4,5-dimethylthiazol-2-yl)-2,5-diphenyltetrazolium bromide (MTT, MultiSciences, China) assay. The specific experimental steps referred to our previous research ([Zhu et al., 2020]). For each cell line, cells were digested and seeded in 96-well plates at a density of 1 × 10^3 cells/well. […] Then, the formed formazan crystals were dissolved in DMSO, and the plates were estimated in a […] microplate reader (BioTek Inc., Bio-Tek MQX200) at a wavelength of 490 nm. Optical density (OD) values were obtained, and the inhibition rate and IC50 of each compound on different cells were calculated by GraphPad Prism 8.0.1 software. […]

LO2 cells = assay: MTT cell viability assay, normal liver LO2; format: cell-based, human
Protocol: as §1
Cell viability was measured by a 3-(4,5-dimethylthiazol-2-yl)-2,5-diphenyltetrazolium bromide (MTT, MultiSciences, China) assay. The specific experimental steps referred to our previous research ([Zhu et al., 2020]). For each cell line, cells were digested and seeded in 96-well plates at a density of 1 × 10^3 cells/well. After 24 h of culture, the cells were adherent and treated with varying concentrations of RPDPRH (0, 3.125, 6.25, 12.5, 25, 50, and 100 μM). Cells without treatment were used as a solvent control group (0 μM, DMSO) and those with cisplatin treatment served as a positive control. After 48 h of treatment, MTT solution was added and incubated for 4 h. Then, the formed formazan crystals were dissolved in DMSO, and the plates were estimated in a […] microplate reader (BioTek Inc., Bio-Tek MQX200) at a wavelength of 490 nm. Optical density (OD) values were obtained, and the inhibition rate and IC50 of each compound on different cells were calculated by GraphPad Prism 8.0.1 software. Cell inhibition rate (%) = 1− [(OD experimental-OD blank)/(OD control-OD blank)] × 100%.

HepG2 cells = assay: Annexin V-FITC/PI flow cytometry apoptosis assay, HepG2; format: cell-based, human; settings: 48 h; for total apoptosis rate: DMSO control 7.73 ± 2.18%
Protocol: The effect of RPDPRH on apoptosis was performed using the Annexin V-FITC/PI Apoptosis kit (MultiSciences, China), following the manufacturer’s protocol. The cells were digested, dispersed, and plated into six-well plates with 2 × 10^4 cells/well and treated with RPDPRH (0, 6.25, 12.5, and 25 μM) at various concentrations for 48 h. Upon completion of the treatment, cells were harvested, washed with cool phosphate buffered solution (PBS, Gibco, United States) (0.01 M, pH=7.4), and re-suspended in a 500 μl binding buffer. Annexin V-FITC (5 μl) and PI (10 μl) were added into the cell suspension, and then, the suspension was incubated at room temperature away from light for 5 min. Cells were analyzed by using a flow cytometer (Agilent NovoCyte, China) immediately, and the results of the apoptosis were analyzed by FlowJo software.

Bax [1] = assay: Western blot, Bax expression in HepG2 cells; format: cell-based, human; settings: HepG2, 25 μM, 48 h, vs DMSO control
Protocol: (§2) The experimental steps of the Western blotting assay referred to Lin’s study ([Lin et al., 2020]). After treatment with different concentrations of RPDPRH (0, 6.25, 12.5, and 25 μM) for 48 h, hepatocarcinoma cells were lysed with an ice-cold RIPA protein lysis buffer (Beyotime, China). Total cell lysates were prepared with RIPA lysis buffer containing phosphatase inhibitors (Roche, China) and protease inhibitors (MedChemExpress, United States). Total cell lysates were centrifuged at 10,000 g for 10 min at 4°C to obtain the supernatant. The protein concentration was detected according to the BCA Protein Assay Kit (Beyotime, China). Then, 5× SDS loading buffer (Beyotime, China) was added to the supernatant and boiled at 100°C for 10 min. The obtained protein samples were stored at −80°C.
(§3) The protein samples (20 μg) were resolved on 4% concentration glue and 12% separating glue and prepared according to the SDS-PAGE Gel Quick Preparation Kit procedure (Beyotime, China). After electrophoresis at 80 V for 1.5–2 h, the proteins were wet-transferred onto a polyvinylidene difluoride membrane (PVDF, Millipore) at 300 mA for 1–1.5 h. […]

Bax [2] = assay: Western blot, Bax expression in 7402 cells; format: cell-based, human; settings: 7402, 25 μM, 48 h, vs DMSO control
Protocol: as §2, §3

Bcl-2 = assay: Western blot, Bcl-2 expression in 7402 cells; format: cell-based, human; settings: 7402, 25 μM, 48 h, vs DMSO control, p < 0.01
Protocol: as §2, §3

O=C1/C(=C/c2ccc(Cl)cc2)CC(/C=C/c2ccc(Cl)cc2)(C(=O)NC2CCCCC2)N1c1ccc(F)cc1 (centres unmarked) [RPDPRH, (2E, 4E)-4-(4-chlorobenzylidene)-2-(4-chlorostyryl)-N-cyclohexyl-1-(4-fluorophenyl)-5-oxopyrrolidine-2-carboxamide]
IC50 (HeLa cells): 15.2 µM | IC50 (LO2 cells; Homo sapiens, L02, normal liver LO2 cells, 48 h, read-out: Half inhibitory concentration (IC50), LO2): > 100 µM | toxicity to the normal hepatic LO2 cells (LO2 cells; LO2 cells, insignificant inhibition at 100 µM (Table 1 footnote b)): no significant toxicity | early apoptotic cell (LR) rate (HepG2 cells; HepG2, 6.25 μM): 5.53% | late apoptotic (UR) rate (HepG2 cells; HepG2, 6.25 μM): 5.07% | total apoptosis rate (HepG2 cells; HepG2, 6.25 μM): 10.6 ± 1.49% | early apoptotic cell (LR) rate (HepG2 cells; HepG2, 12.5 μM): 14.90% | late apoptotic (UR) rate (HepG2 cells; HepG2, 12.5 μM): 21.00% | total apoptosis rate (HepG2 cells; HepG2, 12.5 μM): 35.90 ± 2.51% | early apoptotic cell (LR) rate (HepG2 cells; HepG2, 25 μM): 19.80% | late apoptotic (UR) rate (HepG2 cells; HepG2, 25 μM): 32.30% | total apoptosis rate (HepG2 cells; HepG2, 25 μM): 52.10 ± 4.49% | ratio of Bax/Bcl-2 (Bax [1]): increase obviously | expression of pro-apoptotic protein Bax (Bax [1]; p < 0.05): significant increase | ratio of Bax/Bcl-2 (Bax [2]): increase obviously | expression of pro-apoptotic protein Bax (Bax [2]; p < 0.05): significant increase | expression of anti-apoptotic protein Bcl-2 (Bcl-2): decrease
